What follows are substances tested on Proteus mirabilis (assay: MIC against Gram-negative bacteria: Proteus mirabilis). Details: Proteus mirabilis; 5×10^5 CFU/mL; 10 h cultivation at 37° C.
Assay type: cell-based
Outline: (§1)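 First, colonies from LB agar were grown in LB at 37° C, 185 rpm, to McFarland turbidity 0.5, then centrifuged and resuspended in fresh LB. Next, wells received 5×10^5 CFU/mL bacteria plus two-fold serially diluted EGF domain protein (triplicate). Finally, plates were shaken at 37° C and the no-growth concentration taken as MIC.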

| Substance | MIC against P. mirabilis |
| --- | --- |
| PRT1471 (GKNWCEEDMENGGCEYLCLPAPQINDHSPKYTCSCPSGYNVEENGRDCQ; listed as Homo sapiens) | 25 µg/mL |
| PRT1374 (GVRQCPNDCSQHGVCQDGVCICWEGYVSEDC; listed as Homo sapiens) | 12.5 µg/mL |
| PRT1454 (DVNECFYEELNACSGRELCANLEGSYWCVCHQEAPATSPRKLNLEWEDCP; listed as Homo sapiens) | 12.5 µg/mL |
| PRT1365 (SQLRCPNDCHSRGRCVEGKCVCEQGFKGYDCS; listed as Homo sapiens) | 12.5 µg/mL |

What follows are substances tested on Aeromonas hydrophila (assay: MIC against Gram-negative bacteria: Aeromonas hydrophila). Details: Aeromonas hydrophila; 5×10^5 CFU/mL; 10 h cultivation at 37° C.
Assay type: cell-based
Outline: as §1

| Substance | MIC against A. hydrophila |
| --- | --- |
| PRT1471 (GKNWCEEDMENGGCEYLCLPAPQINDHSPKYTCSCPSGYNVEENGRDCQ; listed as Homo sapiens) | 25 µg/mL |
| PRT1374 (GVRQCPNDCSQHGVCQDGVCICWEGYVSEDC; listed as Homo sapiens) | 12.5 µg/mL |
| PRT1454 (DVNECFYEELNACSGRELCANLEGSYWCVCHQEAPATSPRKLNLEWEDCP; listed as Homo sapiens) | 25 µg/mL |
| PRT1365 (SQLRCPNDCHSRGRCVEGKCVCEQGFKGYDCS; listed as Homo sapiens) | 12.5 µg/mL |

The substances below were run on E. coli DH5α (assay: Antibacterial activity: MIC and growth curve against E. coli DH5α in 96-well plate). Details: minimal inhibitory concentration against E. coli DH5α; 96-well plate, 5×10^5 CFU/mL, 37° C., judged after 8 h.
Assay type: cell-based
Outline: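 MIC taken as lowest protein level with no bacterial growth, tracked by A600 every 30 min during 37 °C, 175 rpm culture. Two-fold protein series 50-12.5 μg/mL final, triplicate wells, against 5×10^5 CFU/mL of LB-washed mid-log cells.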

| Substance | MIC |
| --- | --- |
| PRT1471 (GKNWCEEDMENGGCEYLCLPAPQINDHSPKYTCSCPSGYNVEENGRDCQ; listed as Homo sapiens) | 12.5 µg/mL |
| PRT1374 (GVRQCPNDCSQHGVCQDGVCICWEGYVSEDC; listed as Homo sapiens) | 50 µg/mL |
| PRT1454 (DVNECFYEELNACSGRELCANLEGSYWCVCHQEAPATSPRKLNLEWEDCP; listed as Homo sapiens) | 25 µg/mL |
| PRT1365 (SQLRCPNDCHSRGRCVEGKCVCEQGFKGYDCS; listed as Homo sapiens) | 12.5 µg/mL |

These substances were tested on Citrobacter diversus (assay: MIC against Gram-negative bacteria: Citrobacter diversus). Details: Citrobacter diversus; 5×10^5 CFU/mL; 10 h cultivation at 37° C.
Assay type: cell-based
Outline: as §1

| Substance | MIC against C. diversus |
| --- | --- |
| PRT1471 (GKNWCEEDMENGGCEYLCLPAPQINDHSPKYTCSCPSGYNVEENGRDCQ; listed as Homo sapiens) | 50 µg/mL |
| PRT1374 (GVRQCPNDCSQHGVCQDGVCICWEGYVSEDC; listed as Homo sapiens) | 12.5 µg/mL |
| PRT1454 (DVNECFYEELNACSGRELCANLEGSYWCVCHQEAPATSPRKLNLEWEDCP; listed as Homo sapiens) | 12.5 µg/mL |
| PRT1365 (SQLRCPNDCHSRGRCVEGKCVCEQGFKGYDCS; listed as Homo sapiens) | 50 µg/mL |

Each substance was assayed on Enterobacter cloacae (assay: MIC against Gram-negative bacteria: Enterobacter cloacae). Details: Enterobacter cloacae; 5×10^5 CFU/mL; 10 h cultivation at 37° C.
Assay type: cell-based
Outline: as §1

| Substance | MIC against E. cloacae |
| --- | --- |
| PRT1471 (GKNWCEEDMENGGCEYLCLPAPQINDHSPKYTCSCPSGYNVEENGRDCQ; listed as Homo sapiens) | 50 µg/mL |
| PRT1374 (GVRQCPNDCSQHGVCQDGVCICWEGYVSEDC; listed as Homo sapiens) | 25 µg/mL |
| PRT1454 (DVNECFYEELNACSGRELCANLEGSYWCVCHQEAPATSPRKLNLEWEDCP; listed as Homo sapiens) | 50 µg/mL |
| PRT1365 (SQLRCPNDCHSRGRCVEGKCVCEQGFKGYDCS; listed as Homo sapiens) | 25 µg/mL |

The substances below were run on Proteus vulgaris (assay: MIC against Gram-negative bacteria: Proteus vulgaris). Details: Proteus vulgaris; 5×10^5 CFU/mL; 10 h cultivation at 37° C.
Assay type: cell-based
Outline: as §1

| Substance | MIC against P. vulgaris |
| --- | --- |
| PRT1471 (GKNWCEEDMENGGCEYLCLPAPQINDHSPKYTCSCPSGYNVEENGRDCQ; listed as Homo sapiens) | 50 µg/mL |
| PRT1374 (GVRQCPNDCSQHGVCQDGVCICWEGYVSEDC; listed as Homo sapiens) | 12.5 µg/mL |
| PRT1454 (DVNECFYEELNACSGRELCANLEGSYWCVCHQEAPATSPRKLNLEWEDCP; listed as Homo sapiens) | 25 µg/mL |
| PRT1365 (SQLRCPNDCHSRGRCVEGKCVCEQGFKGYDCS; listed as Homo sapiens) | 25 µg/mL |

These substances were tested on Serratia marcescens (assay: MIC against Gram-negative bacteria: Serratia marcescens). Details: Serratia marcescens; 5×10^5 CFU/mL; 10 h cultivation at 37° C.
Assay type: cell-based
Outline: as §1

| Substance | MIC against S. marcescens |
| --- | --- |
| PRT1471 (GKNWCEEDMENGGCEYLCLPAPQINDHSPKYTCSCPSGYNVEENGRDCQ; listed as Homo sapiens) | 25 µg/mL |
| PRT1374 (GVRQCPNDCSQHGVCQDGVCICWEGYVSEDC; listed as Homo sapiens) | 12.5 µg/mL |
| PRT1454 (DVNECFYEELNACSGRELCANLEGSYWCVCHQEAPATSPRKLNLEWEDCP; listed as Homo sapiens) | 50 µg/mL |
| PRT1365 (SQLRCPNDCHSRGRCVEGKCVCEQGFKGYDCS; listed as Homo sapiens) | 12.5 µg/mL |

These substances were tested on Klebsiella pneumonia (assay: MIC against Gram-negative bacteria: Klebsiella pneumonia). Details: Klebsiella pneumonia; 5×10^5 CFU/mL; 10 h cultivation at 37° C.
Assay type: cell-based
Outline: as §1

| Substance | MIC against K. pneumonia |
| --- | --- |
| PRT1471 (GKNWCEEDMENGGCEYLCLPAPQINDHSPKYTCSCPSGYNVEENGRDCQ; listed as Homo sapiens) | 12.5 µg/mL |
| PRT1374 (GVRQCPNDCSQHGVCQDGVCICWEGYVSEDC; listed as Homo sapiens) | 12.5 µg/mL |
| PRT1454 (DVNECFYEELNACSGRELCANLEGSYWCVCHQEAPATSPRKLNLEWEDCP; listed as Homo sapiens) | 25 µg/mL |
| PRT1365 (SQLRCPNDCHSRGRCVEGKCVCEQGFKGYDCS; listed as Homo sapiens) | 50 µg/mL |

The substances below were run on Pseudomonas aeruginosa (assay: MIC against Gram-negative bacteria: Pseudomonas aeruginosa). Details: Pseudomonas aeruginosa; 5×10^5 CFU/mL; 10 h cultivation at 37° C.
Assay type: cell-based
Outline: as §1

| Substance | MIC against P. aeruginosa |
| --- | --- |
| PRT1471 (GKNWCEEDMENGGCEYLCLPAPQINDHSPKYTCSCPSGYNVEENGRDCQ; listed as Homo sapiens) | 50 µg/mL |
| PRT1374 (GVRQCPNDCSQHGVCQDGVCICWEGYVSEDC; listed as Homo sapiens) | 25 µg/mL |
| PRT1454 (DVNECFYEELNACSGRELCANLEGSYWCVCHQEAPATSPRKLNLEWEDCP; listed as Homo sapiens) | 12.5 µg/mL |
| PRT1365 (SQLRCPNDCHSRGRCVEGKCVCEQGFKGYDCS; listed as Homo sapiens) | 25 µg/mL |

The substances below were run on E. coli BL21 (assay: MIC against Gram-negative bacteria: E. coli BL21). Details: E. coli BL21; 5×10^5 CFU/mL; 10 h cultivation at 37° C.
Assay type: cell-based
Outline: as §1

| Substance | MIC against E. coli BL21 |
| --- | --- |
| PRT1471 (GKNWCEEDMENGGCEYLCLPAPQINDHSPKYTCSCPSGYNVEENGRDCQ; listed as Homo sapiens) | 25 µg/mL |
| PRT1374 (GVRQCPNDCSQHGVCQDGVCICWEGYVSEDC; listed as Homo sapiens) | 12.5 µg/mL |
| PRT1454 (DVNECFYEELNACSGRELCANLEGSYWCVCHQEAPATSPRKLNLEWEDCP; listed as Homo sapiens) | 12.5 µg/mL |
| PRT1365 (SQLRCPNDCHSRGRCVEGKCVCEQGFKGYDCS; listed as Homo sapiens) | 100 µg/mL |

What follows are substances tested on Moraxella catarrhalis (assay: MIC against Gram-negative bacteria: Moraxella catarrhalis). Details: Moraxella catarrhalis; 5×10^5 CFU/mL; 10 h cultivation at 37° C.
Assay type: cell-based
Outline: as §1

| Substance | MIC against M. catarrhalis |
| --- | --- |
| PRT1471 (GKNWCEEDMENGGCEYLCLPAPQINDHSPKYTCSCPSGYNVEENGRDCQ; listed as Homo sapiens) | 25 µg/mL |
| PRT1374 (GVRQCPNDCSQHGVCQDGVCICWEGYVSEDC; listed as Homo sapiens) | 12.5 µg/mL |
| PRT1454 (DVNECFYEELNACSGRELCANLEGSYWCVCHQEAPATSPRKLNLEWEDCP; listed as Homo sapiens) | 50 µg/mL |
| PRT1365 (SQLRCPNDCHSRGRCVEGKCVCEQGFKGYDCS; listed as Homo sapiens) | 25 µg/mL |
